The assay addresses hVR1 (Homo sapiens, UniProt Q8NER1). In words: Calcium imaging assay (Fura2) of VR1 antagonists, proton stimulation. It is filed as cell-based. To be noted: HEK 293 cells expressing hVR1; for % Inhibition @ 1 μM: calcium ion influx induced by proton stimulation (pH 5.7); for IC50: calcium ion influx induced by proton stimulation. From the text: VR1 protein is a heat-gated cation channel that exchanges about 10 calcium ions for every sodium ion resulting in neuronal membrane depolarization and elevated intracellular calcium ion levels. Therefore the functional activity of compounds at the VR1 receptor may be determined by measuring changes in intracellular calcium levels in 293 cells expressing capsaicin-insensitive VR1 receptor variants. A dual wavelength ratiometric dye, Fura2, was used as an indicator of relative levels of calcium ions in a 96 well format using a bench top scanning fluorometer with integrated fluidics and temperature control (Flex Station, Molecular Devices).
A dual wavelength ratiometric dye, Fura2, was used as an indicator of relative levels of [Ca2+] in a 96 well format using a bench top scanning fluorometer with integrated fluidics and temperature control (Flex Station, Molecular Devices).
HEK 293 cells expressing hVR1 were grown on PDL coated 96-well black-walled plates, in the presence of a DMEM medium containing 5% Penstrep, 5% Glutamax, 200 ug/mL Hygromycin, 5 μg/mL Blasticide and 10% heat inactivated FBS. Prior to assay, the cells were loaded with 5 μg/mL Fura2 in normal saline solution at 37° C. for 40 minutes. Cells were then washed with normal saline to remove the dye.
The assay consists of two stages; a pre-treatment phase followed by a treatment phase. In the pretreatment phase, 50 μl of a compound solution was added to the cells. Immediately following, 50 μl of the test compound in the presence of agonist (a saline solution plus 10 mM citric acid bufferd to pH 5.7 with HCl) was added. Fura2 was excited at […] to indicate relative calcium concentration. Changes in wavelength measurements were made throughout the course of the experiment in 4 second intervals over a period of 3 minutes. The fluorescence ratio from the excitations at […] was recorded for analysis. Responses were measured as peak fluorescence ratio after compound-agonist addition minus baseline fluorescence ratio prior to treatment and were calculated for each concentration tested using the SoftMaxPro software. Data was expressed as percentage inhibition calculated as follows: […]
A dose response curve was then determined, from which the ID50 of each compound was calculated.

For orientation: IC50 means the point on the concentration scale where inhibition reaches its midpoint.

SMILES strings stand for the structures.

Chain of hVR1 (Q8NER1 whole entry): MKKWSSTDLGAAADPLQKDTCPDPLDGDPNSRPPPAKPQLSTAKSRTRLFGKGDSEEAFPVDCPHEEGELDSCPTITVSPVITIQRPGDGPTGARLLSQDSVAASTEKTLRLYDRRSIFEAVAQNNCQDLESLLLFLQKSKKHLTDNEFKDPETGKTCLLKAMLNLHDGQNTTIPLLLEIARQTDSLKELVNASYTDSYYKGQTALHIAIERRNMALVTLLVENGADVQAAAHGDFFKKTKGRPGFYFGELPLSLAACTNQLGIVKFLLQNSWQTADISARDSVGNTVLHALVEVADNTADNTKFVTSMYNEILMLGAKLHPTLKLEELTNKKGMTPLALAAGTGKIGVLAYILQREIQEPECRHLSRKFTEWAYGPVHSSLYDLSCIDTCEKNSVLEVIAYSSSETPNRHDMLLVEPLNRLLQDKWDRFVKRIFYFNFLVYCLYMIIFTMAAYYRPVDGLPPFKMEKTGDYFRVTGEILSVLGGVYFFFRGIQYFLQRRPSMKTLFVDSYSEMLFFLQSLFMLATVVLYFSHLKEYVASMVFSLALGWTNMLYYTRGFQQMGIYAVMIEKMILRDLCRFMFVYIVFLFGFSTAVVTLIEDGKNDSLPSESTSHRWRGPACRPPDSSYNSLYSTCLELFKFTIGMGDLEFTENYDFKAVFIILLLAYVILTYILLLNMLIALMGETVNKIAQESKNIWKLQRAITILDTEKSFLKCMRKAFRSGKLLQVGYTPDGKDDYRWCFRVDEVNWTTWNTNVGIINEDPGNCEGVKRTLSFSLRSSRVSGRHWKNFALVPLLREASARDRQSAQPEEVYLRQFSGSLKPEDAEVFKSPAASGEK

On to `O=C(O)COc1nc2c(c(Nc3ccc(C(F)(F)F)cc3)n1)CCN(c1ncccc1Cl)C2` [Example 75, 2-(4-(4-(Trifluoromethyl)phenylamino)-7-(3-chloropyridin-2-yl)-5,6,7,8-tetrahydropyrido[3,4-d]pyrimidin-2-yloxy)acetic acid], for which the “% Inhibition @ 1 μM” value is recorded as “+ (compound exhibited 0-25% inhibition of calcium ion influx induced by proton stimulation)” and the concentration for half-maximal inhibition (IC50) is more than 1000 nM.

Take `Oc1nc2c(c(Nc3ccc(C(F)(F)F)cc3)n1)CCN(c1ncccc1Cl)C2` [Example 57, 4-(4-(Trifluoromethyl)phenylamino)-7-(3-chloropyridin-2-yl)-5,6,7,8-tetrahydropyrido[3,4-d]pyrimidin-2-ol]: the “% Inhibition @ 1 μM” value is on record as “+ (compound exhibited 0-25% inhibition of calcium ion influx induced by proton stimulation)” and the IC50 is more than 1000 nM.

Regarding `Clc1cccnc1N1CCc2c(ncnc2Nc2ccc3c(c2)OCCO3)C1` [Example 74, 7-(3-Chloropyridin-2-yl)-5,6,7,8-tetrahydro-N-(2,3-dihydrobenzo[b][1,4]dioxin-6-yl)pyrido[3,4-d]pyrimidin-4-amine], the “% Inhibition @ 1 μM” value is recorded as “++ (compound exhibited 26-50% inhibition of calcium ion influx induced by proton stimulation)” and the IC50 was more than 1000 nM.

With `CC1(C)CNc2cc(Nc3ncnc4c3CCN(c3ncccc3Cl)C4)ccc21` [Example 69, 7-(3-Chloropyridin-2-yl)-5,6,7,8-tetrahydro-N-(3,3-dimethylindolin-6-yl)pyrido[3,4-d]pyrimidin-4-amine], the “% Inhibition @ 1 μM” value is listed as “++++ (compound exhibited 76% or greater inhibition of calcium ion influx induced by proton stimulation)” and the IC50 was in the range of 101 to 500 nM.

Consider `FC(F)(F)Oc1ccc(Nc2ncnc3c2CCN(c2ncccc2Cl)C3)cc1` [Example 78, 7-(3-Chloropyridin-2-yl)-5,6,7,8-tetrahydro-N-(4-(trifluoromethoxy)-phenyl)pyrido[3,4-d]pyrimidin-4-amine], for which the “% Inhibition @ 1 μM” value is recorded as “++++ (compound exhibited 76% or greater inhibition of calcium ion influx induced by proton stimulation)” and the IC50 is less than 100 nM.

Take `CN1CCOc2cc(Nc3ncnc4c3CCN(c3ncccc3Cl)C4)ccc21` [Example 65, 7-(3-Chloropyridin-2-yl)-5,6,7,8-tetrahydro-N-(3,4-dihydro-4-methyl-2H-benzo[b][1,4]oxazin-7-yl)pyrido[3,4-d]pyrimidin-4-amine]: the “% Inhibition @ 1 μM” value is recorded as “+++ (compound exhibited 51-75% inhibition of calcium ion influx induced by proton stimulation)” and the IC50 was 101 to 500 nM.

Turning to `CS(=O)(=O)c1cccnc1N1CCc2c(ncnc2Nc2ccc(C(F)(F)F)nc2)C1` [Example 21], the “% Inhibition @ 1 μM” value is reported as “+++ (compound exhibited 51-75% inhibition of calcium ion influx induced by proton stimulation)” and the IC50 is 101 to 500 nM.

As to `Clc1ccc(CNc2ncnc3c2CCN(c2ncccc2Cl)C3)cc1` [Example 41, N-(4-Chlorobenzyl)-7-(3-chloropyridin-2-yl)-5,6,7,8-tetrahydropyrido[3,4-d]pyrimidin-4-amine], the “% Inhibition @ 1 μM” value is “++ (compound exhibited 26-50% inhibition of calcium ion influx induced by proton stimulation)” and the IC50 was 101 to 500 nM.

Regarding `FC(F)Oc1ccc(Nc2ncnc3c2CCN(c2ncccc2Cl)C3)cc1` [Example 15, 7-(3-Chloropyridin-2-yl)-N-(4-(difluoromethoxy)phenyl)-5,6,7,8-tetrahydropyrido[3,4-d]pyrimidin-4-amine], the “% Inhibition @ 1 μM” value is recorded as “+++ (compound exhibited 51-75% inhibition of calcium ion influx induced by proton stimulation)” and the concentration for half-maximal inhibition (IC50) was 101 to 500 nM.

Regarding `Fc1cccnc1N1CCc2c(ncnc2Nc2ccc(C(F)(F)F)cc2)C1` [Example 11, [7-(3-Fluoro-pyridin-2-yl)-5,6,7,8-tetrahydro-pyrido[3,4-d]pyrimidin-4-yl]-(4-trifluoromethyl-phenyl)-amine], the “% Inhibition @ 1 μM” value is “++++ (compound exhibited 76% or greater inhibition of calcium ion influx induced by proton stimulation)” and the half-maximal inhibitory concentration (IC50) is 101 to 500 nM.

Consider `FC(F)Oc1ccc(Nc2ncnc3c2CCN(c2ncccc2C(F)(F)F)C3)cc1` [Example 77, N-(4-(difluoromethoxy)phenyl)-7-(3-(trifluoromethyl)pyridin-2-yl)-5,6,7,8-tetrahydropyrido[3,4-d]pyrimidin-4-amine], for which the “% Inhibition @ 1 μM” value is reported as “++++ (compound exhibited 76% or greater inhibition of calcium ion influx induced by proton stimulation)” and the IC50 fell in the range of 101 to 500 nM.

For the molecule `c1ccc(CN2CCc3c(ncnc3Nc3cnc4ccccc4c3)C2)cc1` [Example 38, 7-Benzyl-5,6,7,8-tetrahydro-N-(quinolin-3-yl)pyrido[3,4-d]pyrimidin-4-amine], the half-inhibitory concentration (IC50) is 101 to 500 nM.

`Clc1cccnc1N1CCc2c(ncnc2NCCOc2ccccc2)C1` [Example 52, 7-(3-Chloropyridin-2-yl)-5,6,7,8-tetrahydro-N-(2-phenoxyethyl)pyrido[3,4-d]pyrimidin-4-amine]: the “% Inhibition @ 1 μM” value is listed as “+ (compound exhibited 0-25% inhibition of calcium ion influx induced by proton stimulation)”.

As to `Cc1ccc(N2CCc3c(ncnc3Nc3ccc(C(F)(F)F)cc3)C2)cc1` [Example 47, 7-(p-Tolyl)-N-(4-(trifluoromethyl)phenyl)-5,6,7,8-tetrahydropyrido[3,4-d]pyrimidin-4-amine], the “% Inhibition @ 1 μM” value was “++ (compound exhibited 26-50% inhibition of calcium ion influx induced by proton stimulation)” and the IC50 lay in the range of 501 to 1000 nM.

As for `COC(=O)COc1nc2c(c(Nc3ccc(C(F)(F)F)cc3)n1)CCN(c1ncccc1Cl)C2` [Example 66, Methyl 2-(4-(4-(trifluoromethyl)phenylamino)-7-(3-chloropyridin-2-yl)-5,6,7,8-tetrahydropyrido[3,4-d]pyrimidin-2-yloxy)acetate], the “% Inhibition @ 1 μM” value was “++++ (compound exhibited 76% or greater inhibition of calcium ion influx induced by proton stimulation)” and the IC50 is less than 100 nM.

With `Clc1ccc(Nc2ncnc3c2CCN(c2ncccc2Cl)C3)cc1Cl` [Example 42, N-(3,4-Dichlorophenyl)-7-(3-chloropyridin-2-yl)-5,6,7,8-tetrahydropyrido[3,4-d]pyrimidin-4-amine], the “% Inhibition @ 1 μM” value was “++ (compound exhibited 26-50% inhibition of calcium ion influx induced by proton stimulation)”.

Take `CC(C)(C)c1ccc(Nc2nc(CN3CCOCC3)nc3c2CCN(c2ncccc2Cl)C3)cc1` [Example 13, (4-tert-Butyl-phenyl)-[7-(3-chloro-pyridin-2-yl)-2-morpholin-4-ylmethyl-5,6,7,8-tetrahydro-pyrido[3,4-d]pyrimidin-4-yl]-amine]: the “% Inhibition @ 1 μM” value is listed as “++ (compound exhibited 26-50% inhibition of calcium ion influx induced by proton stimulation)”.

As for `CC1(C)CNCc2cc(Nc3ncnc4c3CCN(c3ncccc3Cl)C4)ccc21` [Example 62, 7-(3-chloropyridin-2-yl)-5,6,7,8-tetrahydro-N-(1,2,3,4-tetrahydro-4,4-dimethylisoquinolin-7-yl)pyrido[3,4-d]pyrimidin-4-amine], the IC50 is more than 1000 nM.

Regarding `COc1cccc(Nc2ncnc3c2CCN(c2cc(C(F)(F)F)ccn2)C3)c1` [Example 72, 7-(4-(Trifluoromethyl)pyridin-2-yl)-5,6,7,8-tetrahydro-N-(3-methoxyphenyl)pyrido[3,4-d]pyrimidin-4-amine], the “% Inhibition @ 1 μM” value is listed as “+ (compound exhibited 0-25% inhibition of calcium ion influx induced by proton stimulation)” and the IC50 was more than 1000 nM.
